For one test, the target named is T1, insulin receptor (Homo sapiens, UniProt P06213).
T1 construct: expressed in transfected cells; host or cells: CHO-wt IR cells
As to the kind of experiment: Insulin receptor autophosphorylation, immunokinase assay of CHO-wt-IR cells. The test is classed as biochemical.

A further test concerns NIH3T3-RETC634Y cells. As to the kind of experiment: Growth of NIH3T3 cells expressing constitutively active RET Cys634Tyr. Particulars: 20 nM or 30 nM for 9 days, 5% or 1% serum (FIG. 1). The test is classed as cell-based. On the procedure: (§1) The indicated cell lines are allowed to plate overnight in 6-well plates (NIH3T3 cells at 5×10^4; 3T3-RETC634Y at 2×10^4). They are then grown in the presence of no PKI166, 20 nM PKI166 or 30 nM PKI166 for 9 days, with media changes every 3 days. Bars represent the X±SD of cell counts in 3 independent experiments. The first three columns show the results in NIH3T3-RetCys634Tyr in 5% serum, the next three columns show the results in NIH3T3-RetCys634Tyr in 1% serum and the last two columns the results in NIH3T3 in 5% serum (only vehicle and 30 nM PKI 166).
(§2) […] is the most common germine mutation of RET in multiple endocrine neoplasia type 2A stably expressing a constitutively active form of RET. NIH3T3-RETC634Y cells are transformed, as evidenced by growth in low serum conditions, colony formation in soft agar, and tumor formation in nude mice. […] PKI166 has no effect on growth of wild-type NIH3T3 cells grown in 5% serum (FIG. 1).

For test [1], the system named is PLCγ phosphorylation by RET/PTC. In words: Activation (phosphorylation) of PLCγ by RET/PTC in Ret-PTC3-5 cells. The test is classed as cell-based. The settings on record: Ret-PTC3-5 cells, doxycycline, inhibitor for 24 h; read-out: IC50 of inhibition of PLCγ phosphorylation. As to the method:
Ret-PTC3-5 cells are seeded at 1×10^5 cells/well in 6-well Corning plates. After 3 days, cells are treated with or without doxycycline in the presence of the selected concentration of inhibitor dissolved in solvent for 24 h. Cells are rinsed twice with cold PBS containing 0.1 mM sodium orthovanadate, and left for 20 minutes in ice-cold RIPA buffer. Cell lysates are collected by centrifugation at 4C, and pelletted at 10,000×g for 20 min. Protein assays are performed on aliquots of supernatants by the Coomassie Blue assay (Pierce, Rockford, Ill.). 650 μg of protein are incubated with anti-PLC γ antibody (SantaCruz) or normal IgG overnight. The immune complexes are precipitated with proteinAG agarose (Santa Cruz) previously washed with RIPA buffer as described. After three washes with RIPA buffer, precipitates are eluted into 30 μl sample buffer, heated 10 min at 95 C, and ran on SDS-PAGE gel for Western blot analysis. Blots are initially probed with anti-phosphotyrosine. Loading is normalized by probing with anti-PLC γ antibody (SantaCruz).
It was shown before that upon activation, RET associates with and phosphorylates PLCγ. To further explore the effects of PKI166 on RET kinase activity, the impact of pretreatment with the compound on PLCγ phosphorylation is examined. When grown in the absence of doxycycline, there is no detectable PLCγ phosphorylation. […]

The next test deals with T2, RET/PTC3 (Homo sapiens, UniProt P07949).
T2 construct: expressed in transfected cells; host or cells: PCCL3 thyroid cell line (clone RET/PTC3-5), doxycycline-inducible expression
T2 sequence (P07949 with tags, fused parts or gaps): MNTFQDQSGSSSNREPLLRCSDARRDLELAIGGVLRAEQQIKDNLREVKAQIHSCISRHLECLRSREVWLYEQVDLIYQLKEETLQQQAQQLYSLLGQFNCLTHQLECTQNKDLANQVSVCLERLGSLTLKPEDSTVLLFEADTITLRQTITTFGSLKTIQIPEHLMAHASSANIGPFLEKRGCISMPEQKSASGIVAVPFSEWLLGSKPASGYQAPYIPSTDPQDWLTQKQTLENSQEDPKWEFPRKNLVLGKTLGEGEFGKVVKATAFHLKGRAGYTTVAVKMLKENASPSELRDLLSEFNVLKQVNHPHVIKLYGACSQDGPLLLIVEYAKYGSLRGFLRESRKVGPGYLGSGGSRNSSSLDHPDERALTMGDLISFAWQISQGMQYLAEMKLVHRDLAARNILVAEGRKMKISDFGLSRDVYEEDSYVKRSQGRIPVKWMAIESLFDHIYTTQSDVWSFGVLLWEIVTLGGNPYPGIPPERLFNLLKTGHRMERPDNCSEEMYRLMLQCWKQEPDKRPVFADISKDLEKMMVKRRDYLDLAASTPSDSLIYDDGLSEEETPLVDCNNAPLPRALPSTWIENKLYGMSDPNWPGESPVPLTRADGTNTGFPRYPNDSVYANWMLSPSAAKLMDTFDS
In words: RET/PTC autophosphorylation, in vitro immunokinase assay of RET-IP extracts from RET/PTC3-5 cells. The test is classed as biochemical. Particulars: RET-IP extracts from RET/PTC3-5 cells treated with doxycycline for 48 h. The source says:
In order to explore the activity of a compound which decreases the activity of the EGF on RET kinase, for example, a well-differentiated clonal thyroid cell line, PCCL3, conditionally expressing either RET/PTC3 or RET/PTC1 in a tetracyclin (doxycyclin)-dependent manner as described below can be used. The activation of expression of RET/PTC1 or 3 results in dimerization, autophosphorylation, and association with a number of signaling intermediates including Shc and PLCγ. […]
Confluent T-75 flasks are washed with ice cold PBS containing 0.2 mM sodium ortho-vanadate, Cells are then lysed with cold RIPA buffer 1.8 ml (20 mM Tris, pH 7.4, 150 mM NaCl, 1% Nonidet P-40, 1% Tween 20, 20 mM sodium fluoride, 1 mM sodium ortho-vanadate, 1 mM EGTA, […], 0.2 mM PMSF, with Sigma Protease inhibitor mix) with constant agitation at 4 C for 20 min. […] Proteins are subjected to SDS-PAGE gel (7.5%), their phosphorylation measured by Phosphorimager densitometry (Molecular Dynamics, Sunnyvale, Calif.) after transfer to nitrocellulose membranes. Phosphorylation is then normalized to total RET protein in the IP determined by Western analysis using goat polyclonal anti-RET antibody (SantaCruz). […]

The subject of a further test is wild-type NIH3T3 cells. As to the kind of experiment: Growth of wild-type NIH3T3 cells. Particulars: 5% serum; 30 nM, 9 days (FIG. 1). In kind it is cell-based. On the procedure: as §1, §2
In a further test the target is T3, EGF-R (Homo sapiens, UniProt P00533).
T3 construct: The human squamous-cell carcinoma cell line A431 stably overexpressing the EGF-R; endogenous in cells; host or cells: A431 human squamous-cell carcinoma cells
T3 sequence (P00533 25-1210): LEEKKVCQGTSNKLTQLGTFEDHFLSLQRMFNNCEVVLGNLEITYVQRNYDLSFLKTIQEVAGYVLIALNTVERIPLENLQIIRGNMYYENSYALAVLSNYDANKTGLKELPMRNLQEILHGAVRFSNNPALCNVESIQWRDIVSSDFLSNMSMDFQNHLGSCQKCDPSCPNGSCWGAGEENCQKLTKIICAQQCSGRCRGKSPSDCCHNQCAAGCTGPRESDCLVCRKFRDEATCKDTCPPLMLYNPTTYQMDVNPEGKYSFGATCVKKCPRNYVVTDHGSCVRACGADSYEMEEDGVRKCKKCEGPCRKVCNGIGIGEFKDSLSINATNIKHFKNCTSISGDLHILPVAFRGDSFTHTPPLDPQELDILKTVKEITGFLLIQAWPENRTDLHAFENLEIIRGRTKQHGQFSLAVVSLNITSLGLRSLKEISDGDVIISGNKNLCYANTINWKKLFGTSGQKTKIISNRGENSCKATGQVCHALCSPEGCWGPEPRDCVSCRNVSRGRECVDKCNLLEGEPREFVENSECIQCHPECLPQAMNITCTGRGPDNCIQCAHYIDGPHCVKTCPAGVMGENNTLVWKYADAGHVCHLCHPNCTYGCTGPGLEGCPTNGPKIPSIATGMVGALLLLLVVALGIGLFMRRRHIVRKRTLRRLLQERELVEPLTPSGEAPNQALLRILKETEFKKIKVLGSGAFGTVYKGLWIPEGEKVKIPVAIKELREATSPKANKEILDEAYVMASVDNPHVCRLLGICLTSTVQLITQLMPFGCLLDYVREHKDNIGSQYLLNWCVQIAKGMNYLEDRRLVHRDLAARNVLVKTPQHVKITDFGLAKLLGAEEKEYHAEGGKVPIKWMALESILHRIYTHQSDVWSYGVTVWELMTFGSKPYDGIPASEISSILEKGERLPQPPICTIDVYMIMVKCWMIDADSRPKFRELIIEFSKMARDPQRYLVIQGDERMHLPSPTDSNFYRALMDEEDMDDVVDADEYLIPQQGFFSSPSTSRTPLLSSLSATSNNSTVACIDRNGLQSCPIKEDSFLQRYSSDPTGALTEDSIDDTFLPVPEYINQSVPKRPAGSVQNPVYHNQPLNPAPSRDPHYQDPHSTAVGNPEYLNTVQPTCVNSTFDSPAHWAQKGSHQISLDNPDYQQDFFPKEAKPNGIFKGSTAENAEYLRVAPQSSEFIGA
In words: EGF-R autophosphorylation, immunokinase assay of A431 cells. In kind it is biochemical.

SMILES strings stand for the structures. “Also recorded” adds a separate entry of the source.

T1 sequence (P06213 28-1382, species assumed): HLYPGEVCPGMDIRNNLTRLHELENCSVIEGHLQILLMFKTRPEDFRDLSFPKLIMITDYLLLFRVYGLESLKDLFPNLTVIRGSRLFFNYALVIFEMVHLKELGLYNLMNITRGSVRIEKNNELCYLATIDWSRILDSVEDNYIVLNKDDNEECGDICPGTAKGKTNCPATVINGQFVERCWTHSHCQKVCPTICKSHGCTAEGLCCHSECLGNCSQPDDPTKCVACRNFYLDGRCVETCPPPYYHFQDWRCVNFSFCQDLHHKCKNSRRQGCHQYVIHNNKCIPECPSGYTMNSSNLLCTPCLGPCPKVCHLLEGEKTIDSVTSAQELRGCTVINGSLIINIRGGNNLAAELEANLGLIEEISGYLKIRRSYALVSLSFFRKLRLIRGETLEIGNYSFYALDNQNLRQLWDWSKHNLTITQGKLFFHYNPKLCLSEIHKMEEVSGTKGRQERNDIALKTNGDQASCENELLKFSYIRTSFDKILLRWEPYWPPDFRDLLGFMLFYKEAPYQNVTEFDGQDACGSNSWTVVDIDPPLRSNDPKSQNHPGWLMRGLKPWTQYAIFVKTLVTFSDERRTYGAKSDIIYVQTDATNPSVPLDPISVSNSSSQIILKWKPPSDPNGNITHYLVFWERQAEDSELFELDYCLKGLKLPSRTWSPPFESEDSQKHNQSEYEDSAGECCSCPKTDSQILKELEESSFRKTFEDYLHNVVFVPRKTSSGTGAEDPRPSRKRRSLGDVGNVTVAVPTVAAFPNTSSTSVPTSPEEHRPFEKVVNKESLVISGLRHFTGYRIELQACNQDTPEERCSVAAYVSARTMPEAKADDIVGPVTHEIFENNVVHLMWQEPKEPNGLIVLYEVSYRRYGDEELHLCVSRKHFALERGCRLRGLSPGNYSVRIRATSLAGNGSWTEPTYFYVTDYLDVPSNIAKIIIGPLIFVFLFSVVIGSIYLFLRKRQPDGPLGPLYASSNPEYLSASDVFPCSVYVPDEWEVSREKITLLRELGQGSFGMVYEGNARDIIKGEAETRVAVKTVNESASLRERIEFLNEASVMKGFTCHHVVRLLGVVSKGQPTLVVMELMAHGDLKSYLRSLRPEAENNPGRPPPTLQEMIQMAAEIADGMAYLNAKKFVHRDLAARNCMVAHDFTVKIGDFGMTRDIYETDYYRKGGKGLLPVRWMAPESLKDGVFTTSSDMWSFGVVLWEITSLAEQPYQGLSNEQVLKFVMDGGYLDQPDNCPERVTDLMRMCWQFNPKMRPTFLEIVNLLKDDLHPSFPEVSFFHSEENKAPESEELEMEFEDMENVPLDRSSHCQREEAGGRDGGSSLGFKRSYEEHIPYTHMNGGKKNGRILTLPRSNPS

For `C[C@@H](Nc1ncnc2[nH]c(-c3ccc(O)cc3)cc12)c1ccccc1` [PKI166, (R)-6-(4-hydroxy-phenyl)-4-[(1-phenyl-ethyl)-amino]-7H-pyrrolo[2,3-d]-pyrimidine], the “effect on insulin receptor autophosphorylation” value at insulin receptor was “no effects”. Moreover, the “inhibition of cell growth of RET-transformed fibroblasts” value with NIH3T3-RETC634Y cells is “inhibits the growth; also recorded: powerful, concentration dependent inhibition of cell growth”. Besides, the values for the IC50 (in test [1]; against RET/PTC3; against EGF-R) were roughly 4 nM, roughly 17.7 nM and 8 nM, respectively. The “effect on growth of wild-type NIH3T3 cells” value with wild-type NIH3T3 cells was “no effect”.

As a reminder, the IC50 is the concentration at which inhibition is half-maximal.

For the origin of these results see patent publication US20040191254A1, “Method of treatment of thyroid cancer” (priority 2001, published 2004).
